Measured values published in article PMC6572376, “N1-Propargylguanosine Modified mRNA Cap Analogs: Synthesis, Reactivity, and Applications to the Study of Cap-Binding Proteins” (Molecules, 2019).

What was measured:
[1] = biological target: murine eIF4E (Mus musculus, UniProt P63073); test: Pyrene fluorescence intensity competition binding assay for eIF4E
From the text: The prime role of the mRNA cap is to participate in initiation of translation through binding with eIF4E. Therefore, we investigated how the substitution at the N1 position influences the interaction between the cap analogs and eIF4E. To this end, we performed binding competition experiments with a Py-labeled m^7GTP analog as previously described. Thence, we determined IC50 values and calculated binding constants values (KD) for the cap analog-eIF4E complexes (Table 1, Figure 2). […] Additionally, the differences identified among studied compounds derived from triphosphate chain modifications were in agreement with previously published results.
A previously described pyrene fluorescence intensity binding method was used to determine the dissociation constants of the nonfluorescent ligands binding to the eIF4E protein in a competitive binding experiment. The experiments were performed in 96-well, black, non-binding assay plates with point fluorescence measurements (λexc = 345 nm; λem = 378 nm). Each well contained a buffer (50 mM Hepes/KOH pH = 7.2 containing 100 mM KCl and 0.5 mM EDTA), 10 nM of pyrene-labeled 7-methylguanosine pentaphosphate probe, ligand 1–5 or m^7Gp3G (half-log dilutions of Clig from 100 μM to 0.003 μM), and 75 nM of eIF4E protein. The reagents and added protein were pre-incubated for 15 min at 30 °C and stirred at 300 rpm. Measurements were performed in three different temperatures: At 20, 30, and 37 °C. A previously derived Equation (1) was used to calculate the inhibition (dissociation) constant KI of a competitive ligand according to the dependence of the recorded fluorescence intensity on the inhibitor concentration. (1) KI=IC50−[Pt]+[PL]50(KD/[L]50+1)/[L]50/KD+[P]0/KD+1 where IC50 is the inhibitor concentration required to replace 50% of the fluorescent probe from the protein binding site, [Pt] is the total protein concentration, [PL]50 is the protein–probe complex concentration at 50% inhibition, [L]50 is the free probe concentration at 50% inhibition, and [P]0 is the free protein concentration without inhibition.
In order to determine IC50 value, we used Origin® 2017 (OriginLab Corp., Northampton, MA, USA) software to fit the curve described by the derived Equation (2) to the measured fluorescence intensity values for various inhibitor concentrations. (2) F=F0Fmax−F0/1+10^(log(IC50)−log(Clig.))p where Clig. is the concentration of non-fluorescent ligand.
Figure 2 Dose–response curves for compounds 1–5 and m^7Gp3G plotted from a competition binding assay for meIF4E [16]. eIF4E (75 nM) and a pyrene-labeled fluorescent probe (10 nM) were incubated at 30 °C with the indicated concentrations of the investigated compounds (1–5 or m^7Gp3G as a reference).

[2] = biological target: T1, human DcpS (hDcpS) (Homo sapiens, UniProt Q96C86); test: Microscale thermophoresis direct binding to hDcpS; conditions: for Kd: MST, 25 nM probe, 25 °C, 1:1 binding model, triplicate
T1 construct: made in house
T1 sequence (Q96C86 1-337): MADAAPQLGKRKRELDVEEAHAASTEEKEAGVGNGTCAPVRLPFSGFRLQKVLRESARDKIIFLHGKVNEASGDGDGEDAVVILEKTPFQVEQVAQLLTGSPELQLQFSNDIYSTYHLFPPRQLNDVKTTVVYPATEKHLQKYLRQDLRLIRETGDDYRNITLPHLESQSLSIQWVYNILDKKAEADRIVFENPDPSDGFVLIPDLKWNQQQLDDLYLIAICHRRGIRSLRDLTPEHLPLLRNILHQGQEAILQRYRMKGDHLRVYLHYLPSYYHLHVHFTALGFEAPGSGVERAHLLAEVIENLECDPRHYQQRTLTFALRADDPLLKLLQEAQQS
Description: With these promising results in mind, we decided to use the same approach for studying DcpS enzyme. For this purpose, cleavage-resistant probes 11 and 12 were used. Both probes were high-affinity ligands for DcpS. […] This is in agreement with previously reported data on the influence of triphosphate chain modifications on cap-DcpS interaction.
Probes 11 and 12 were dissolved in MST buffer (50 mM HEPES/KOH, 100 mM KCl, 0.5 mM EDTA, pH = 7.2, 0.2% Tween 20) to obtain a 50 nM stock solution. In study of a probe 11, human DcpS (hDcpS) was dissolved in MST buffer in a 16 point 1:1 dilution series in a 2.0 µM to 0.061 nM concentration range. Equal volumes (10 µL) of hDcpS and the probe were mixed together to obtain the following assay concentrations: 25 nM probe and 1.0 µM to 0.030 nM hDcpS. In study of a probe 12, hDcpS was dissolved in MST buffer in a 16 point 2:1 dilution series in a 700 nM to 1.60 nM concentration range. Equal volumes (10 µL) of hDcpS and the probe were mixed together to obtain the following assay concentrations: 25 nM probe and 350 nM to 0.80 nM hDcpS.
(§1) For both assays, samples were loaded into standard Monolith™ NT.115 Series Capillares (NanoTemper Technologies, Cambridge, MA, USA). MST measurements were performed on Monolith NT.115 instrument (NanoTemper Technologies, Cambridge, MA, USA) at 25 °C. Measurements parameters were set as follows: 40% LED Blue power, Medium MST power. Data were obtained for three independently pipetted measurements and analyzed in PALMIST v. 1.4.4 [36] using a 1:1 binding model to calculate KD, using the signal from an MST-on time of 20 s (for eIF4E assay: Cold region start, −3 s; hot region start, 0.5 s; for DcpS assay: Cold region start, −3 s; hot region start 19 s), confidence intervals were calculated with error surface projection (ESP) method. Plots presented were generated using GUSSI v. 1.4.2 [37].
Figure 5 Direct binding microscale thermophoresis (MST) experiments with eIF4E and DcpS. (a) MST binding curves for probes 6, 11, 12, and meIF4E. […] Data were analyzed in Palmist v. […]

[3] = biological target: murine eIF4E (meIF4E) (Mus musculus, UniProt P63073); test: Microscale thermophoresis direct binding to meIF4E; conditions: MST, 25 nM probe, 25 °C, 1:1 binding model, triplicate
Description: To this end, fluorescent probes (25 nM) were mixed with increasing concentrations of meIF4E and microscale thermophoresis was measured for each sample (Figure S5). Baseline corrected normalized fluorescences (ΔFn) determined from the MST traces were plotted as a function of protein concentration. KD values could then be calculated from the resulting binding curves (Figure 5). […] These findings align with those determined for the parent compounds 1, 2, and 3 (Table 1).
Probes 6, 11, and 12 were dissolved in MST buffer (50 mM HEPES/KOH, 100 mM KCl, 0.5 mM EDTA, pH = 7.2, 0.2% Tween 20) to obtain a 50 nM stock solution. Murine eIF4E (meIF4E) was dissolved in MST buffer in a 16 point, 1:1 dilution series in a 10.0 µM to 0.30 nM concentration range. Equal volumes (10 µL) of meIF4E and probe were combined to obtain the following assay concentrations: 25 nM probe and 5.0 µM to 0.15 nM meIF4E for the assay.
as §1
Figure 5 Direct binding microscale thermophoresis (MST) experiments with eIF4E and DcpS. (a) MST binding curves for probes 6, 11, 12, and meIF4E. Probe 6, 11, or 12 (50 nM) was mixed with a half-log dilution series of an meIF4E solution (10 µM–0.30 nM). (b) MST binding curves for probes 11 and 12 and DcpS. […] Data were analyzed in Palmist v. […]

[4] = biological target: T2, human decapping scavenger enzyme (hDcpS) (Homo sapiens, UniProt Q96C86); test: Susceptibility to hDcpS hydrolysis monitored by RP-HPLC; conditions: 30 µM cap analog, 30 nM hDcpS, 30 °C
T2 sequence (Q96C86 1-337): T1 sequence (Q96C86 1-337)
Description: (§2) Susceptibility of the new cap analogs to hydrolysis by human decapping scavenger enzyme (hDcpS) was investigated to assess the influence of N1 substitution on cap analogs recognition by DcpS. Caps 1–5 or m^7Gp3G (30 µM each) were incubated with hDcpS (30 nM) at 30 °C. Then, reaction samples were thermally deactivated and analyzed by RP-HPLC.
(§3) Enzymatic reactions with human DcpS were carried out in 50 mM Tris/HCl, 200 mM KCl, 0.5 mM EDTA, pH = 7.6 buffer at 30 °C for 30 nM hDcpS and 30 µM of a cap analog studied. As a control, m^7Gp3G was used. Cap analogs concentration was determined spectrophotometrically (absorption coefficient used in calculations is equal to 22,600 mL/mmol/cm in 0.1 M phosphate buffer pH = 7.0). For 1 and m^7Gp3G, 3 independent experiments were performed. Aliquots were terminated by heat inactivation for 3 min at 95 °C. Samples were analyzed with RP-HPLC using method E.
(§4) Data are average of triplicate experiments ± SD.

[5] = biological target: T2, human decapping scavenger enzyme (hDcpS); test: in vitro; conditions: pH 7.6
Description: as §2, §3, §4

[6] = 30 °C, 75 nM eIF4E, 10 nM pyrene-labeled probe, triplicate
[7] = 30 °C, calculated from IC50 values

murine eIF4E (meIF4E), sequence (P63073 whole entry): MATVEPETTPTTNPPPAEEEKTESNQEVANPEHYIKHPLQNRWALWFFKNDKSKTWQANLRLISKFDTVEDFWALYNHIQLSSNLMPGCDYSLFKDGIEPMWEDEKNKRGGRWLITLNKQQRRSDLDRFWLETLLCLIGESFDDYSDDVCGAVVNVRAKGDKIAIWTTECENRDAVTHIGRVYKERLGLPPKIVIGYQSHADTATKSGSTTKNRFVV
murine eIF4E, sequence (P63073 whole entry): as above

IC50 ([1]; 20 °C)	Kd ([1]; 20 °C, calculated from IC50)	IC50 [1, 6]	Kd [1, 7]	IC50 ([1]; 37 °C)	Kd ([1]; 37 °C, calculated from IC50)	Fold greater affinity for DcpS than probe 11 ([2]; MST KD ratio)	Kd [2]	Kd [3]	Half-life [4]	half-life at 30 µM [5]	Structure (SMILES)	Susceptibility to hydrolysis by hDcpS ([4]; RP-HPLC)
5510 ± 330 nM	511 ± 75 nM	6040 ± 460 nM	520 ± 78 nM	8100 ± 610 nM	826 ± 109 nM						C#CCn1c(N)nc2c(ncn2C2OC(COP(=O)(O)CP(=O)(O)OP(=O)([O-])OCC3OC(n4c[n+](C)c5c(O)nc(N)nc54)C(O)C3O)C(O)C2O)c1=O (stereo not drawn) [Compound 4, P1-(N7-Methylguanosin-5′-yl) P3-(N1-propargylguanosin-5′-yl) 2,3-methylenetriphosphate]	
3040 ± 260 nM	279 ± 45 nM	3460 ± 300 nM	294 ± 46 nM	3310 ± 870 nM	334 ± 96 nM				5.703 min		Cn1c[n+]([C@@H]2O[C@H](COP(=O)(O)OP(=O)(O)OP(=O)(O)OC[C@H]3O[C@@H](n4cnc5c(=O)[nH]c(N)nc54)[C@H](O)[C@@H]3O)[C@@H](O)[C@H]2O)c2nc(N)[nH]c(=O)c21 [m^7Gp3G, reference compound]	
3060 ± 160 nM	281 ± 41 nM	3480 ± 220 nM	297 ± 43 nM	3750 ± 890 nM	379 ± 100 nM						C#CCn1c(N)nc2c(ncn2C2OC(COP(=O)([O-])OP(=O)(O)NP(=O)(O)OCC3OC(n4c[n+](C)c5c(O)nc(N)nc54)C(O)C3O)C(O)C2O)c1=O (stereo not drawn) [Compound 3, P1-(N7-Methylguanosin-5′-yl) P3-(N1-propargylguanosin-5′-yl) 1,2-imidotriphosphate]	
1850 ± 150 nM	168 ± 26 nM	2160 ± 200 nM	182 ± 29 nM	3210 ± 330 nM	324 ± 48 nM						C#CCn1c(N)nc2c(ncn2C2OC(COP(=O)(O)NP(=O)(O)OP(=O)([O-])OCC3OC(n4c[n+](C)c5c(O)nc(N)nc54)C(O)C3O)C(O)C2O)c1=O (stereo not drawn) [Compound 5, P1-(N7-Methylguanosin-5′-yl) P3-(N1-propargylguanosin-5′-yl) 2,3-imidotriphosphate]	
2920 ± 190 nM	268 ± 40 nM	3570 ± 250 nM	305 ± 45 nM	3680 ± 700 nM	371 ± 82 nM					15.8 min	C#CCn1c(N)nc2c(ncn2C2OC(COP(=O)(O)OP(=O)([O-])OP(=O)(O)OCC3OC(n4c[n+](C)c5c(O)nc(N)nc54)C(O)C3O)C(O)C2O)c1=O (stereo not drawn) [Compound 1, P1-(N1-Propargylguanosin-5′-yl) P3-(N7-methylguanosin-5′-yl) triphosphate]	efficiently cleaved by DcpS but more slowly than m^7Gp3G

More lines, now with the values behind:

Structure (SMILES)	IC50 ([1]; 20 °C)	Kd ([1]; 20 °C, calculated from IC50)	IC50 [1, 6]	Kd [1, 7]	IC50 ([1]; 37 °C)	Kd ([1]; 37 °C, calculated from IC50)	Fold greater affinity for DcpS than probe 11 ([2]; MST KD ratio)	Kd [2]	Kd [3]	Half-life [4]	half-life at 30 µM [5]	Susceptibility to hydrolysis by hDcpS ([4]; RP-HPLC)
C#CCn1c(N)nc2c(ncn2C2OC(COP(=O)([O-])OP(=O)(O)CP(=O)(O)OCC3OC(n4c[n+](C)c5c(O)nc(N)nc54)C(O)C3O)C(O)C2O)c1=O (stereo not drawn) [Compound 2, P1-(N7-Methylguanosin-5′-yl) P3-(N1-propargylguanosin-5′-yl) 1,2-methylenetriphosphate]	6570 ± 490 nM	610 ± 94 nM	6370 ± 730 nM	548 ± 95 nM	8200 ± 790 nM	836 ± 121 nM						
C[n+]1cn([C@@H]2O[C@H](COP(=O)(O)NP(=O)(O)OP(=O)([O-])OC[C@H]3O[C@@H](n4cnc5c(=O)n(Cc6cn(CCCNC(=O)c7ccc8c(c7)C(=O)OC87c8ccc(O)cc8Oc8cc(O)ccc87)nn6)c(N)nc54)[C@H](O)[C@@H]3O)[C@@H](O)[C@H]2O)c2nc(N)nc(O)c21 [Compound 12, m^7GpNHppG-N1-5FAM]							2.5 fold	14 nM	53 nM			
C[n+]1cn([C@@H]2O[C@H](COP(=O)(O)OP(=O)([O-])OP(=O)(O)OC[C@H]3O[C@@H](n4cnc5c(=O)n(Cc6cn(CCCNC(=O)c7ccc8c(c7)C(=O)OC87c8ccc(O)cc8Oc8cc(O)ccc87)nn6)c(N)nc54)[C@H](O)[C@@H]3O)[C@@H](O)[C@H]2O)c2nc(N)nc(O)c21 [Compound 6, m^7Gp3G-N1-5FAM]									50 nM			
C[n+]1cn([C@@H]2O[C@H](COP(=O)(O)CP(=O)(O)OP(=O)([O-])OC[C@H]3O[C@@H](n4cnc5c(=O)n(Cc6cn(CCCNC(=O)c7ccc8c(c7)C(=O)OC87c8ccc(O)cc8Oc8cc(O)ccc87)nn6)c(N)nc54)[C@H](O)[C@@H]3O)[C@@H](O)[C@H]2O)c2nc(N)nc(O)c21 [Compound 11, m^7GpCH2ppG-N1-5FAM]								38 nM	201 nM			
